The record followed here is patent US6706664B1, “Benzoxazole compounds, process for the preparation thereof and herbicides” (UBE Industries, Ltd., priority 1999, dated 2004).

Common to all, as to design: key: 0: normal development; 1: Less damaged; 2: Slightly damaged; 3: Moderately damaged; 4: Severely damaged; 5: All killed
One assay has as its system annual bluegrass. Nature of the assay: Foliar spread test for upland field. Type of assay: in vivo, Poa annua. Conditions: foliar spray 500 ppm, 3 weeks, rank vs non-treated. Summed up: (§1)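 Crops and weeds grown about 2 weeks in volcanic ash soil in a glasshouse, then sprayed with wettable-powder formulations diluted to 500 ppm in water with 0.5% surfactant. After 3 weeks at 25 °C, injury scored visually 0 (normal) to 5 (all killed).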

The test system of assay [1] is green foxtail. In words: Foliar spread test for upland field. The class given is in vivo, Setaria viridis. Conditions: foliar spray 500 ppm, 3 weeks, rank vs non-treated. Summed up: as §1
Another assay deals with livid amaranth. In words: Soil treatment test for upland field. Particulars: 500 g/ha, glass house 25° C., 3 weeks. The class given is in vivo, Amaranthus lividus. Summed up:
(§2)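 Pre-emergence: seeds sown in Ube alluvial soil in pots, then soil surface sprayed with wettable-powder formulation diluted in water with 0.05% surfactant at 500 g/ha. Plants kept in glasshouse at average 25° C for 3 weeks; injury scored 0 (normal) to 5 (all killed).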

Assay [2] deals with velvetleaf. Nature of the assay: Foliar spread test for upland field. Particulars: foliar spray 500 ppm, 3 weeks, rank vs non-treated. The class given is in vivo, Abutilon theophrasti. Summed up:
as §1

Assay [3] has as its system velvetleaf. Nature of the assay: Soil treatment test for upland field. The class given is in vivo, Abutilon theophrasti. Particulars: 500 g/ha, glass house 25° C., 3 weeks. Summed up:
as §2

A further assay concerns wheat. Nature of the assay: Soil treatment test for upland field. Particulars: 500 g/ha, glass house 25° C., 3 weeks. Type of assay: in vivo. Summed up: as §2
In the next assay the test system is solgum. Nature of the assay: Soil treatment test for upland field. Particulars: 500 g/ha, glass house 25° C., 3 weeks. The class given is in vivo. Summed up:
as §2

The test system of the next assay is sugar beat. In words: Soil treatment test for upland field. Type of assay: in vivo. Particulars: 500 g/ha, glass house 25° C., 3 weeks. Summed up: as §2
Another assay deals with soybean. Nature of the assay: Soil treatment test for upland field. Particulars: 500 g/ha, glass house 25° C., 3 weeks. The class given is in vivo. Summed up: as §2
A further assay deals with corn. Nature of the assay: Soil treatment test for upland field. The class given is in vivo. Conditions: 500 g/ha, glass house 25° C., 3 weeks. Summed up: as §2
In the next assay the test system is cotton. Nature of the assay: Soil treatment test for upland field. Type of assay: in vivo. Conditions: 500 g/ha, glass house 25° C., 3 weeks. Summed up: as §2
The subject of the next assay is monochoria. In words: Herbicidal test for paddy field. The class given is in vivo, Monochoria vaginalis. Particulars: paddy field pot, 500 g/ha dropwise at 1.5 leaf stage of barnyardgrass, 3 weeks, rank vs non-treated. Summed up:
(§3)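 Flooded pots (3 cm water) of alluvial soil were sown with seeds or tubers, and wettable-powder formulations in 0.05% surfactant water were dripped in at 500 g/ha at the 1.5-leaf stage of barnyardgrass. Plants were kept 3 weeks in a glasshouse at an average 25° C. Damage was scored 0 (normal) to 5 (all killed) against untreated controls.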

For assay [4], the system named is Large crabgrass. Nature of the assay: Foliar spread test for upland field. Conditions: foliar spray 500 ppm, 3 weeks, rank vs non-treated. Type of assay: in vivo, Digitaria adscendens. Summed up:
as §1

Assay [5] concerns green foxtail. In words: Soil treatment test for upland field. Type of assay: in vivo, Setaria viridis. Particulars: 500 g/ha, glass house 25° C., 3 weeks. Summed up: as §2
For assay [6], the system named is barnyardgrass. Nature of the assay: Soil treatment test for upland field. Type of assay: in vivo, Echinochloa crusgalli. Conditions: 500 g/ha, glass house 25° C., 3 weeks. Summed up:
as §2

The test system of assay [7] is Large crabgrass. In words: Soil treatment test for upland field. Type of assay: in vivo, Digitaria adscendens. Conditions: 500 g/ha, glass house 25° C., 3 weeks. Summed up:
as §2

Assay [8] relates to barnyardgrass. Nature of the assay: Herbicidal test for paddy field. The class given is in vivo, Echinochloa crusgalli. Conditions: paddy field pot, 500 g/ha dropwise at 1.5 leaf stage of barnyardgrass, 3 weeks, rank vs non-treated. Summed up:
as §3

In another assay the test system is morning glory. Nature of the assay: Foliar spread test for upland field. Type of assay: in vivo, Ipomoea spps. Conditions: foliar spray 500 ppm, 3 weeks, rank vs non-treated. Summed up: as §1
The next assay concerns common lambsquartes. Nature of the assay: Foliar spread test for upland field. Conditions: foliar spray 500 ppm, 3 weeks, rank vs non-treated. The class given is in vivo, Chenopodium album. Summed up:
as §1

On to `CCCC(Oc1ccc(F)c(C(F)(F)F)c1)c1nc2cc(C(F)(F)F)ccc2o1` (stereo not shown) [Compound 199], for which the “Effects Annual bluegrass” value with annual bluegrass is 2. Also, the results for the “Effects Green foxtail” value in the assay on green foxtail [1] and with green foxtail [5] were 2 and 5, respectively. Besides, the “Effects Livid amaranth” value in the assay with livid amaranth amounted to 5. For the same compound, the “Effects Velvetleaf” value in the assay on velvetleaf [2] was found to be 4; in the assay on velvetleaf [3] it was 5. Besides, the “Effects Wheat” value in the assay on wheat was 0. Moreover, in the assay on solgum, the “Effects Solgum” value was determined as 1. Also, the “Effects Sugar beat” value in the assay with sugar beat stood at 5. Besides, the “Effects Soybean” value with soybean came out at 2. Besides, the “Effects Corn” value in the assay on corn stood at 1. The “Effects Cotton” value with cotton was found to be 2. Moreover, in the assay with monochoria, the “Effect Monochoria” value stood at 5. For the same compound, the “Effects Large crabgrass” value in the assay on Large crabgrass [4] amounted to 2; with Large crabgrass [7] it was 5. For the same compound, in the assay with barnyardgrass [6], the “Effects Barnyardgrass” value worked out at 2. Further, in the assay with barnyardgrass [8], the “Effect Barnyardgrass” value turned out to be 4. Besides, the “Effects Morning glory” value in the assay with morning glory amounted to 4. Further, the “Effects Common lambsquarters” value with common lambsquartes was 4.
As to `CCC(Oc1cccc(C(F)(F)F)c1)c1nc2cc(C#N)ccc2o1` (stereo not shown) [Compound 190], the “Effects Annual bluegrass” value in the assay on annual bluegrass came to 4. Besides, the “Effects Green foxtail” value in the assay on green foxtail [1] and in the assay with green foxtail [5] was 5 each time. Besides, the “Effects Livid amaranth” value in the assay with livid amaranth is 5. The “Effects Velvetleaf” value in the assay on velvetleaf [2] was found to be 4; in the assay with velvetleaf [3], 3. In the assay with wheat, the “Effects Wheat” value came to 2. In the assay on solgum, the “Effects Solgum” value was found to be 2. The “Effects Sugar beat” value in the assay on sugar beat was found to be 5. In addition, the “Effects Soybean” value in the assay with soybean was found to be 0. In addition, the “Effects Corn” value with corn was 2. Besides, in the assay with cotton, the “Effects Cotton” value amounted to 5. Further, in the assay with monochoria, the “Effect Monochoria” value turned out to be 5. The “Effects Large crabgrass” value with Large crabgrass [4] is recorded as 3; in the assay with Large crabgrass [7] it was 5. In the assay with barnyardgrass [6], the “Effects Barnyardgrass” value turned out to be 5. For the same compound, in the assay with barnyardgrass [8], the “Effect Barnyardgrass” value is listed as 5. Further, in the assay on morning glory, the “Effects Morning glory” value came out at 3. Further, in the assay on common lambsquartes, the “Effects Common lambsquarters” value amounted to 4.
With `CCCC(Oc1cccc(C(F)(F)F)c1)c1nc2cc(C#N)ccc2o1` (stereo not shown) [Compound 192], the “Effects Annual bluegrass” value with annual bluegrass came to 4. For the same compound, the “Effects Green foxtail” value with green foxtail [1] and with green foxtail [5] was 5 throughout. In addition, the “Effects Livid amaranth” value in the assay on livid amaranth was 5. The “Effects Velvetleaf” value in the assay on velvetleaf [2] is given as 3; with velvetleaf [3], 5. Besides, in the assay on wheat, the “Effects Wheat” value was determined as 2. In addition, the “Effects Solgum” value with solgum is 2. Further, the “Effects Sugar beat” value in the assay with sugar beat stood at 5. Also, in the assay with soybean, the “Effects Soybean” value was determined as 0. For the same compound, the “Effects Corn” value in the assay with corn stood at 2. In the assay with cotton, the “Effects Cotton” value turned out to be 1. For the same compound, in the assay with monochoria, the “Effect Monochoria” value is reported as 5. Moreover, the “Effects Large crabgrass” value in the assay with Large crabgrass [4] turned out to be 3; in the assay with Large crabgrass [7], 5. Moreover, the “Effects Barnyardgrass” value with barnyardgrass [6] worked out at 3. For the same compound, in the assay on barnyardgrass [8], the “Effect Barnyardgrass” value is reported as 5. In the assay on morning glory, the “Effects Morning glory” value was found to be 2. In addition, the “Effects Common lambsquarters” value in the assay on common lambsquartes amounted to 4.
`CCC(Oc1ccc(F)c(C(F)(F)F)c1)c1nc2cc(Br)ccc2o1` (stereo not shown) [Compound 165]: the “Effects Annual bluegrass” value with annual bluegrass is given as 2. Besides, the “Effects Green foxtail” value in the assay with green foxtail [1] came to 4; with green foxtail [5] it was 5. In addition, the “Effects Livid amaranth” value with livid amaranth amounted to 5. Besides, the “Effects Velvetleaf” value in the assay with velvetleaf [2] was 3; with velvetleaf [3], 1. Besides, the “Effects Wheat” value in the assay on wheat stood at 0. Further, in the assay with solgum, the “Effects Solgum” value amounted to 1. In the assay on sugar beat, the “Effects Sugar beat” value worked out at 5. Also, the “Effects Soybean” value with soybean is recorded as 0. Further, the “Effects Corn” value in the assay with corn amounted to 2. Also, the “Effects Cotton” value with cotton is 0. In addition, the “Effect Monochoria” value in the assay on monochoria amounted to 5. The figures for the “Effects Large crabgrass” value with Large crabgrass [4] and in the assay on Large crabgrass [7] were 3 and 5, respectively. In the assay with barnyardgrass [6], the “Effects Barnyardgrass” value amounted to 5. The “Effect Barnyardgrass” value with barnyardgrass [8] is recorded as 4. Also, in the assay with morning glory, the “Effects Morning glory” value was determined as 4. In the assay with common lambsquartes, the “Effects Common lambsquarters” value worked out at 3.
For `CCC(Oc1ccc(F)c(C(F)(F)F)c1)c1nc2cc(Cl)c(C)cc2o1` (stereo not shown) [Compound 340], the “Effects Annual bluegrass” value with annual bluegrass was determined as 3. Moreover, the “Effects Green foxtail” value in the assay with green foxtail [1] came to 4; with green foxtail [5], 5. The “Effects Livid amaranth” value with livid amaranth is reported as 5. The “Effects Velvetleaf” value in the assay on velvetleaf [2] was 4; with velvetleaf [3], 5. Besides, in the assay with wheat, the “Effects Wheat” value was determined as 1. In the assay with solgum, the “Effects Solgum” value was 3. Further, the “Effects Sugar beat” value with sugar beat is listed as 5. Further, in the assay with soybean, the “Effects Soybean” value was 0. In the assay with corn, the “Effects Corn” value turned out to be 2. In addition, the “Effects Cotton” value in the assay with cotton was determined as 0. Moreover, in the assay on monochoria, the “Effect Monochoria” value is given as 5. The entries for the “Effects Large crabgrass” value in the assay on Large crabgrass [4] and in the assay with Large crabgrass [7] were 4 and 5, respectively. Also, in the assay on barnyardgrass [6], the “Effects Barnyardgrass” value was determined as 4. For the same compound, the “Effect Barnyardgrass” value in the assay on barnyardgrass [8] turned out to be 5. Besides, in the assay with morning glory, the “Effects Morning glory” value worked out at 3. Besides, in the assay with common lambsquartes, the “Effects Common lambsquarters” value came out at 4.
Consider `CCCC(Oc1cccc(C(F)(F)F)c1)c1nc2cc(Cl)ccc2o1` (stereo not shown) [Compound 142, 1-(5-chlorobenzoxazol-2-yl)-1-(3-(trifluoromethyl)phenoxy)butane], for which the “Effects Annual bluegrass” value with annual bluegrass was determined as 3. The figures for the “Effects Green foxtail” value in the assay on green foxtail [1] and in the assay on green foxtail [5] were 2 and 5, respectively. Also, the “Effects Livid amaranth” value in the assay with livid amaranth is recorded as 5. Moreover, the “Effects Velvetleaf” value with velvetleaf [2] is on record as 3; in the assay on velvetleaf [3], 5. Also, the “Effects Wheat” value with wheat came out at 1. In addition, in the assay with solgum, the “Effects Solgum” value was found to be 1. Besides, in the assay on sugar beat, the “Effects Sugar beat” value is recorded as 5. The “Effects Soybean” value in the assay with soybean came to 3. In the assay on corn, the “Effects Corn” value was found to be 1. Further, the “Effects Cotton” value with cotton is listed as 0. The “Effect Monochoria” value in the assay on monochoria is 5. Moreover, the “Effects Large crabgrass” value stood at 3 with Large crabgrass [4] and 5 in the assay on Large crabgrass [7]. Also, the “Effects Barnyardgrass” value with barnyardgrass [6] was 3. The “Effect Barnyardgrass” value in the assay with barnyardgrass [8] is reported as 3. Besides, the “Effects Morning glory” value in the assay with morning glory was 3. The “Effects Common lambsquarters” value in the assay on common lambsquartes is given as 4.
As for `CCC(Oc1cccc(C(F)(F)F)c1)c1nc2cc(Cl)ccc2o1` (stereo not shown) [Compound 140], the “Effects Annual bluegrass” value with annual bluegrass was 2. Also, the “Effects Green foxtail” value came out at 2 in the assay with green foxtail [1] and 5 in the assay on green foxtail [5]. In addition, the “Effects Livid amaranth” value with livid amaranth turned out to be 5. Besides, the “Effects Velvetleaf” value is recorded as 2 with velvetleaf [2] and 1 in the assay on velvetleaf [3]. The “Effects Wheat” value in the assay on wheat is 0. Also, in the assay with solgum, the “Effects Solgum” value is reported as 1. Further, the “Effects Sugar beat” value with sugar beat turned out to be 3. In the assay with soybean, the “Effects Soybean” value is 0. For the same compound, the “Effects Corn” value in the assay on corn is listed as 0. Moreover, in the assay with cotton, the “Effects Cotton” value was determined as 0. The “Effect Monochoria” value with monochoria stood at 5. Further, the “Effects Large crabgrass” value is listed as 2 in the assay on Large crabgrass [4] and 5 in the assay with Large crabgrass [7]. Moreover, the “Effects Barnyardgrass” value in the assay on barnyardgrass [6] worked out at 4. Besides, in the assay with barnyardgrass [8], the “Effect Barnyardgrass” value was determined as 5. Besides, the “Effects Morning glory” value with morning glory is recorded as 3. Also, the “Effects Common lambsquarters” value in the assay with common lambsquartes is given as 4.
